Read-outs that look alike come from different tables or passages of the source. Values belong to the molecule of their own block, whether it stands above or below them.
How the values were obtained:
[1] = molecular target: T1, wild-type (WT) KATP channels (Kir6.2/SUR1) (Homo sapiens, UniProt Q09428+Q14654)
[2] = molecular target: T1, wild-type (WT) KATP channels (Kir6.2/SUR1); test: Two-electrode voltage-clamp whole-cell currents in Xenopus oocytes, wild-type channel; type: cell-based

T1 sequence (Q14654 whole entry): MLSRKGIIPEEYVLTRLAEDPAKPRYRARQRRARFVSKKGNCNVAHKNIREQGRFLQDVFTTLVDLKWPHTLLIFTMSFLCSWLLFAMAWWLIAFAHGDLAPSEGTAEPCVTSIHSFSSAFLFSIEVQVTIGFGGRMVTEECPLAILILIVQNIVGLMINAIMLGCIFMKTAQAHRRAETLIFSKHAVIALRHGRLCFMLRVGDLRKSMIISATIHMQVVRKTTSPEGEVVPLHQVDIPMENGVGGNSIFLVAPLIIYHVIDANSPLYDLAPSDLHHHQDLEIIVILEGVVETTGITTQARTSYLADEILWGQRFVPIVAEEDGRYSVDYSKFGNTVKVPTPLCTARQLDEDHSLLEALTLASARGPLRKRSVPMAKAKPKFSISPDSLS
T1 sequence (Q09428 whole entry): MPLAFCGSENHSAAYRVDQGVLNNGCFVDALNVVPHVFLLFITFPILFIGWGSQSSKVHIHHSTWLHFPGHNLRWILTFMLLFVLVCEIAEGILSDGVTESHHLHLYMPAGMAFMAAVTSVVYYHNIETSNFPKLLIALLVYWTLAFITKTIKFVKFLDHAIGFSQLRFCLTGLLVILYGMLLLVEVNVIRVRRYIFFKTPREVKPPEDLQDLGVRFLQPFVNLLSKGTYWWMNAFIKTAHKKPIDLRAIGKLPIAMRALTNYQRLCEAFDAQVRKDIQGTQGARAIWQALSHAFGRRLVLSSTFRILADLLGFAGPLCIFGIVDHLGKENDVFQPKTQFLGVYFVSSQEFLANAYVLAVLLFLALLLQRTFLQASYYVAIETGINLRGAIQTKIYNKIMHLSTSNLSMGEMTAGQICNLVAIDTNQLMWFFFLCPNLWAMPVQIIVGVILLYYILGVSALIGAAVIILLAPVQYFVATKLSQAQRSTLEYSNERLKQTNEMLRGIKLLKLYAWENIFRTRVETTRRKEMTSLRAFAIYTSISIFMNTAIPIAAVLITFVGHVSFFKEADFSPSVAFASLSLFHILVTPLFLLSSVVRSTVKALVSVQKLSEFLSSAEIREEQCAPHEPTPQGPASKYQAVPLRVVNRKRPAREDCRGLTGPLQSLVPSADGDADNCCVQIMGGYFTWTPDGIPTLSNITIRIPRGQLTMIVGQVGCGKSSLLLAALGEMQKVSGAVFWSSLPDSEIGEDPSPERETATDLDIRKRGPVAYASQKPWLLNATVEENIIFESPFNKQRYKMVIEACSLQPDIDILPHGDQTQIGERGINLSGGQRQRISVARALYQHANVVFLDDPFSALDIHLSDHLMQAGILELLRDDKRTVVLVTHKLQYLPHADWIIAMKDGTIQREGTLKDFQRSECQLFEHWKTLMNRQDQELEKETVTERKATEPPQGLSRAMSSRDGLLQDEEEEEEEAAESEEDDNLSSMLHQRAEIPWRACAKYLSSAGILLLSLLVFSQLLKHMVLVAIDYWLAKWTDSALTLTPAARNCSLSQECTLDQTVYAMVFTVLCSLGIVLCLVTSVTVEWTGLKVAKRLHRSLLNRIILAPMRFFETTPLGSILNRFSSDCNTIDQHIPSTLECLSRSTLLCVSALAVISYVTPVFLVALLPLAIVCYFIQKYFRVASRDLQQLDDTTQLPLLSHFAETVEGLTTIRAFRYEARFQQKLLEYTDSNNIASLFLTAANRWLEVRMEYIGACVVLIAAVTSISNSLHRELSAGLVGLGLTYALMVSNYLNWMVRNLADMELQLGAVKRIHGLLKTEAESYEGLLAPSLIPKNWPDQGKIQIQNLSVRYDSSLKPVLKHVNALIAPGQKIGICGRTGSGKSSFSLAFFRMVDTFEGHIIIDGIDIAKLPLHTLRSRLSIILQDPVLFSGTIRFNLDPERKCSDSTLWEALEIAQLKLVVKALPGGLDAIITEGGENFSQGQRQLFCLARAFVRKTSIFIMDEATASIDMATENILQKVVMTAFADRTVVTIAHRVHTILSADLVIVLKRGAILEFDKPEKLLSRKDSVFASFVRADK

Hill coefficient h, fits to individual dose-response relationships (mean±SEM) ([1]; absence of Mg2+): 1.24±0.05
Hill coefficient h, fit to the mean data ([1]; presence of Mg2+): 1.1
Hill coefficient h, fits to individual dose-response relationships (mean±SEM) ([1]; presence of Mg2+): 1.12±0.04
SMILES: Nc1ncnc2c1ncn2[C@@H]1O[C@H](COP(=O)(O)OP(=O)(O)OP(=O)(O)O)[C@@H](O)[C@H]1O [ATP, adenosine triphosphate]

SMILES: [N-]=[N+]=[N-].[Na+] [Na-azide]
activation of whole-cell currents by the metabolic inhibitor ([2]; WT, 3 mM Na-azide): activated

tolbutamide block, percentage block of the azide-induced current ([2]; WT channels, 0.5 mM tolbutamide after 3 mM Na-azide): > 95%
SMILES: CCCCNC(=O)NS(=O)(=O)c1ccc(C)cc1 [tolbutamide]

Source: US20260199438A1, “METHOD AND TREATMENT FOR DIABETES IN DOGS” (THE ROYAL VETERINARY COLLEGE, priority 2022, published 2026)
